COc1cc(C2NC(=O)c3cccc4c3N2CCC4=NO)ccc1F (stereo not drawn) [Example 63, 3-(4-fluoro-3-methoxyphenyl)-7-hydroxyimino-6,7-dihydro-3H,5H-pyrido[3,2,1-ij]quinazoline-1(2H)-one]
melting point: 245.4 to 246.6 °C

CN(C)c1ccc(C2NC(=O)c3cccc4c3N2CCC4=O)cc1 (stereo not drawn) [Example 48, 3-(4-N,N-dimethylaminophenyl)-6,7-dihydro-3H,5H-pyrido[3,2,1-ij]quinazoline-1,7(2H)-dione]
melting point: 198.7 to 202.6 °C

COc1ccc(Cc2nc(=O)c3cccc4c3n2CCC4=O)cc1 [Example 41, 3-(4-methoxyphenyl)methyl-6,7-dihydro-5H-pyrido[3,2,1-ij]quinazoline-1,7-dione]
melting point: 81.4 to 82 °C

COc1ccc(C2NC(=O)c3cccc4c3N2CCC4NCc2ccc(N(C)C)cc2)cc1 (stereo not drawn) [Example 13, 7-(4-N,N-dimethylaminophenyl)methylamino-3-(4-methoxyphenyl)-6,7-dihydro-3H,5H-pyrido[3,2,1-ij]quinazoline-1(2H)-one]
melting point: 73.2 to 75.6 °C

COc1cc(C2NC(=O)c3cccc4c3N2CCC4=NO)ccc1O (stereo not drawn) [Example 61, 7-hydroxyimino-3-(4-hydroxy-3-methoxyphenyl)-6,7-dihydro-3H,5H-pyrido[3,2,1-ij]quinazoline-1(2H)one]
melting point: 174.4 to 189.3 °C

COc1ccc(C2NC(=O)c3cccc4c3N2CCC4=O)cc1[N+](=O)[O-] (stereo not drawn) [Example 10, 3-(4-methoxy-3-nitrophenyl)-6,7-dihydro-1H,5H-pyrido[3,2,1-ij]quinazoline-1,7-(2H)-dione]
melting point: 275.4 to 277.1 °C

CN(C)CCCOc1ccc(C2NC(=O)c3cccc4c3N2CCC4=O)cc1 (stereo not drawn) [Example 26, 3-(4-(3-N,N-dimethylaminopropoxy)phenyl)-6,7-dihydro-3H,5H-pyrido[3,2,1-ij]quinazoline-1,7(2H)-dione]
melting point: 174.3 to 178.2 °C

O=C1NC(c2ccc(Br)cc2)N2CCC(=NO)c3cccc1c32 (stereo not drawn) [Example 79, 3-(4-bromophenyl)-7-hydroxyimino-6,7-dihydro-3H,5H-pyrido[3,2,1-ij]quinazoline-1(2H)-one]
melting point: 230 to 236.9 °C

CCOC(=O)COc1ccc(C2NC(=O)c3cccc4c3N2CCC4=NO)cc1 (stereo not drawn) [Example 59, 3-(4-ethoxycarbonylmethoxyphenyl)-7-hydroxyimino-6,7-dihydro-3H,5H-pyrido[3,2,1-ij]quinazoline-1(2H)-one]
melting point: 198.6 to 203.3 °C

N#Cc1ccc(C2NC(=O)c3cccc4c3N2CCC4=NO)cc1 (stereo not drawn) [Example 74, 3-(4-cyanophenyl)-7-hydroxyimino-6,7-dihydro-3H,5H-pyrido[3,2,1-ij]quinazoline-1(2H)-one]
melting point: > 250 °C

COc1ccc(C2NC(=O)c3cc(F)cc4c3N2CCC4=O)cc1 (stereo not drawn) [Example 24, 9-fluoro-3-(4-methoxyphenyl)-6,7-dihydro-3H,5H-pyrido[3,2,1-ij]quinazoline-1,7(2H)-dione]
melting point: 164.7 to 166 °C

COc1ccc(C2NC(=O)c3cccc4c3N2CCC4N(C)C)cc1 (stereo not drawn) [Example 135, 7-dimethylamino-3-(4-methoxyphenyl)-6,7-dihydro-3H,5H-pyrido[3,2,1-ij]quinazoline-1(2H)-one]
melting point: 188.2 to 192.4 °C

COc1ccc(C2NC(=O)c3cccc4c3N2CCC4=NO)cc1C (stereo not drawn) [Example 57, 7-hydroxyimino-3-(3-methyl-4-methoxyphenyl)-6,7-dihydro-3H,5H-pyrido[3,2,1-ij]quinazoline-1(2H)-one]
melting point: 236 to 243.3 °C

COc1ccc([C@@H]2NC(=O)c3cccc4c3N2CC[C@H]4N)cc1 [Example 7, (+)-(3R,7R)-7-amino-3-(4-methoxyphenyl)-6,7-dihydro-3H,5H-pyrido-[3,2,1-ij]quinazoline-1(2H)-one]
melting point: 110 to 112.7 °C

O=C1NC(c2ccc(Cl)cc2)N2CCC(=NO)c3cccc1c32 (stereo not drawn) [Example 78]
melting point: 210.6 to 217.2 °C

CON=C1CCN2c3c(cccc31)C(=O)NC2c1ccc(OC(C)C)cc1 (stereo not drawn) [Example 64, 3-(4-isopropoxyphenyl)-7-methoxyimino-6,7-dihydro-3H,5H-pyrido[3,2,1-ij]quinazoline-1(2H)-one]
melting point: 167.4 to 168.9 °C

COc1cc(C2NC(=O)c3cccc4c3N2CCC4=O)ccc1F (stereo not drawn) [Example 36, 3-(4-fluoro-3-methoxyphenyl)-6,7-dihydro-3H,5H-pyrido[3,2,1-ij]quinazoline-1,7(2H)-dione]
melting point: 171 to 172.9 °C

COc1ccc(C2NC(=O)c3cccc4c3N2CCC4=O)cc1O (stereo not drawn) [Example 28, 3-(3-hydroxy-4-methoxyphenyl)-6,7-dihydro-3H,5H-pyrido[3,2,1-ij]quinazoline-1,7(2H)-dione]
melting point: 204.7 to 212.2 °C

COc1ccc(C2NC(=O)c3cccc4c3N2CCC4NC(=O)c2ccc(N(C)C)cc2)cc1 (stereo not drawn) [Example 132, 7-(4-N,N-dimethylamino)benzoylamino-3-(4-methoxyphenyl)-6,7-dihydro-3H,5H-pyrido[3,2,1-ij]quinazoline-1(2H)-one]
melting point: 201.4 to 202.9 °C

COc1ccccc1C1NC(=O)c2cccc3c2N1CCC3=O (stereo not drawn) [Example 43, 3-(2-methoxyphenyl)-6,7-dihydro-3H,5H-pyrido[3,2,1-ij]quinazoline-1,7(2H)-dione]
melting point: 214.7 to 219.5 °C

COc1ccc2cc(C3NC(=O)c4cccc5c4N3CCC5=O)ccc2c1 (stereo not drawn) [Example 47, 3-(6-methoxynaphthalene-2-yl)-6,7-dihydro-3H,5H-pyrido[3,2,1-ij]quinazoline-1,7(2H)-dione]
melting point: 191.4 to 195.5 °C

O=C1CCN2c3c1cccc3C(=O)NC2c1ccc(F)cc1 (stereo not drawn) [Example 19, 3-(4-fluorophenyl)-6,7-dihydro-3H,5H-pyrido[3,2,1-ij]quinazoline-1,7(2H)-dione]
melting point: 216 to 224.8 °C

COc1ccc(C2NC(=O)c3cccc4c3N2CCNC4=O)cc1 (stereo not drawn) [Example 14, 3-(4-methoxyphenyl)-5,6-dihydro-3H-pyrimido[5,6,1-jk][1,4]benzdiazepin-1,8(2H,7H)-dione]
melting point: 279.9 °C (dec.)

CON=C1CCN2c3c(cccc31)C(=O)NC2c1ccc(C(F)(F)F)cc1 (stereo not drawn) [Example 62, 7-methoxyimino-3-(4-trifluoromethylphenyl)-6,7-dihydro-3H,5H-pyrido[3,2,1-ij]quinazoline-1(2H)-one]
melting point: 199.4 to 207.2 °C

COc1ccc(C2NC(=O)c3cccc4c3N2CCC4NC(=O)C2CCN(C)CC2)cc1 (stereo not drawn) [Example 134, 7-(1-methylpiperidine-4-yl)carbonylamino-3-(4-methoxy-phenyl)-6,7-dihydro-3H,5H-pyrido[3,2,1-ij]quinazoline-1(2H)-one]
melting point: 252.3 to 253.1 °C

COc1ccc(C2NC(=O)c3cccc4c3N2CCC4)cc1 (stereo not drawn) [Example 103, 3-(4-methoxyphenyl)-6,7-dihydro-3H,5H-pyrido[3,2,1-ij]quinazoline-1(2H)-one]
melting point: 143.3 to 154.6 °C

COc1ccc([C@H]2NC(=O)c3cccc4c3N2CC[C@@H]4N)cc1 [Example 6, (−)-(3S,7S)-7-amino-3-(4-methoxyphenyl)-6,7-dihydro-3H,5H-pyrido[3,2,1-ij]quinazoline-1(2H)-one]
melting point: 110 to 112.7 °C

CON=C1CCN2c3c(cccc31)C(=O)NC2c1ccc(-n2ccnc2)cc1 (stereo not drawn) [Example 58, 3-[4-(imidazole-1-yl)phenyl]-7-methoxyimino-6,7-dihydro-3H,5H-pyrido[3,2,1-ij]quinazoline-1(2H)-one]
melting point: 246.3 °C (dec.)

O=C1NC(c2ccc(F)c(F)c2)N2CCC(=NO)c3cccc1c32 (stereo not drawn) [Example 75, 3-(3,4-difluorophenyl)-7-hydroxyimino-6,7-dihydro-3H,5H-pyrido[3,2,1-ij]quinazoline-1(2H)-one]
melting point: 218.4 to 222.3 °C

O=C1CCN2c3c1cccc3C(=O)NC2c1cccnc1 (stereo not drawn)
melting point: 190 to 191.6 °C

COc1ccc(C2NC(=O)c3cc(OC(F)(F)F)cc4c3N2CCC4=NO)cc1 (stereo not drawn) [Example 50, 7-hydroxyimino-3-(4-methoxyphenyl)-9-trifluoromethoxy-6,7-dihydro-3H,5H-pyrido[3,2,1-ij]quinazoline-1(2H)-one]
melting point: 232.7 to 234.3 °C

CON=C1CCN2c3c(cccc31)C(=O)NC2c1ccc(OC)c(Br)c1 (stereo not drawn) [Example 54, (3-bromo-4-methoxyphenyl)-7-methoxyimino-6,7-dihydro-3H,5H-pyrido[3,2,1-ij]quinazoline-1(2H)-one]
melting point: 218.7 to 221.7 °C

O=C1CCN2c3c1cccc3C(=O)NC2c1ccc(F)c(F)c1 (stereo not drawn) [Example 20, 3-(3,4-difluorophenyl)-6,7-dihydro-3H,5H-pyrido[3,2,1-ij]quinazoline-1,7(2H)-dione]
melting point: 184 to 189.6 °C

O=C1CCN2c3c1cccc3C(=O)NC2c1ccsc1 (stereo not drawn) [Example 46, 3-(3-thienyl)-6,7-dihydro-3H,5H-pyrido[3,2,1-ij]quinazoline-1,7(2H)-dione]
melting point: 190.9 to 193.4 °C

NC1CCN2c3c(cccc31)C(=O)NC2c1ccc(C(=O)O)cc1 (stereo not drawn) [Example 127, 7-amino-3-(4-carboxyphenyl)-6,7-dihydro-3H,5H-pyrido[3,2,1-ij]quinazolinone-1-(2H)-one]
melting point: 232.3 to 238.7 °C

O=C(O)c1ccc(C2NC(=O)c3cccc4c3N2CCC4=O)cc1 (stereo not drawn) [Example 22, 3-(4-carboxyphenyl)-6,7-dihydro-3H,5H-pyrido[3,2,1-ij]quinazoline-1,7(2H)-dione]
melting point: 154.3 to 158.9 °C

COc1ccc(C2NC(=O)c3cccc4c3N2CCC4=NO)cc1Cl (stereo not drawn) [Example 70, 3-(3-chloro-4-methoxyphenyl)-7-hydroxyimino-3-6,7-dihydro-3H,5H-pyrido[3,2,1-ij]quinazoline-1(2H)-one]
melting point: 220 °C (dec.)

COc1ccc(C2NC(=O)c3cccc4c3N2CCC4NC(=O)CN(C)C)cc1 (stereo not drawn) [Example 136, 7-(N,N-dimethylaminoacetyl)amino-3-(4-methoxyphenyl)-6,7-dihydro-3H,5H-pyrido[3,2,1-ij]quinazoline-1(2H)-one]
melting point: 161.4 to 166.6 °C

COc1ccc(C2NC(=O)c3ccc(Cl)c4c3N2CCC4=NO)cc1 (stereo not drawn) [Example 52, 8-chloro-7-hydroxyimino-3-(4-methoxyphenyl)-6,7-dihydro-3H,5H-pyrido[3,2,1-ij]quinazoline-1(2H)-one]
melting point: 132.9 to 133.4 °C

Reference: patent US20060004028A1, “Novel PARP inhibitor” (MOCHIDA PHARMACEUTICAL CO., LTD., priority 2002, published 2006)
